Measurements: ChEMBL document CHEMBL1132522, “A new potent inhibitor of fungal melanin biosynthesis identified through combinatorial chemistry” (Bioorg Med Chem Lett, 1999)

Tested on: Oryza sp.
Test: Compound was evaluated for protecting rice plants from infestation by blast upon foliar application.
Type: functional

Row | SMILES | ED90 [p.p.m.]
1 | C[C@@H](NC(=O)[C@]1(C(F)(F)F)C[C@](C)(Cl)C1)c1ccc(Br)cc1 (stereo in doubt; 3b) | 40

Molecular target: T1, Scytalone dehydratase (Magnaporthe oryzae (strain 70-15 / FGSC 8958) (Rice blast fungus)(Pyricularia oryzae), UniProt P56221)
T1 sequence (P56221 whole entry): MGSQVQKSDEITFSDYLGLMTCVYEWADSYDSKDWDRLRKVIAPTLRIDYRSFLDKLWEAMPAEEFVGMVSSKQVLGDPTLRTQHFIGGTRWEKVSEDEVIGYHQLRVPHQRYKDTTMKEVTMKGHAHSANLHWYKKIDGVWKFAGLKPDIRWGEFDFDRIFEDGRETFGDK
Test: Inhibitory activity against Scytalone dehydratase
Design: species or system Pyricularia grisea

Row | SMILES | Ki [nM]
2 | CC(CCc1ccccc1)NC(=O)C1(C(F)(F)F)CC(C)(Cl)C1 (configuration not stated) | 8.6
3 | C[C@@H](NC(=O)[C@]1(C(F)(F)F)C[C@](C)(Cl)C1)c1ccc(Br)cc1 (stereo in doubt; 3b) | 0.026
4 | C[C@H](COc1ccccc1F)NC(=O)C1(C(F)(F)F)CC(C)(Cl)C1 (some centres not stated) | 0.78
5 | C[C@@H](NC(=O)[C@]1(C(F)(F)F)C[C@](C)(Cl)C1)c1ccc(Br)cc1 (stereo in doubt; 3a) | 2.3
6 | C[C@@H](NC(=O)C1(C(F)(F)F)CC(C)(Cl)C1)c1ccc(Br)cc1 (some centres not stated) | 0.049
7 | CC(NC(=O)C1(C(F)(F)F)CC(C)(Cl)C1)c1ccc(Oc2ccccc2)cc1 (configuration not stated) | 5.6
